Measurements from US20230271142A1, “METHODS OF PREPARING SOLID PARTICULATE MATERIALS” (MICROPORE TECHNOLOGIES LIMITED, priority 2020, published 2023).
Where “and” joins values, the source holds several entries; their conditions need not be identical. Equal entries are not always repeated.

Legend:
Type in all cases: physicochemical
[1] = Crystal size distribution of piroxicam crystals from CXF by laser diffraction (Beckmann Coulter LS-230); details: 5 μm pores
Method: The CXF was configured with a membrane with 5 μm pores, spaced 45 μm apart in a square grid. A 9.5 mm insert was used. The materials were pumped using gear pumps. The aqueous continuous phase was pumped at […] through the annulus at the center of the membrane. The organic disperse phase was pumped at 17 mL/min through the top port of the device, through the membrane and into the flow of continuous phase. The solution was collected in a 250 ml beaker and stirred with an overhead stirrer at 500 rpm for 10-15 minutes. The crystals were analyzed via microscopy and Laser Diffraction (Beckmann Coulter LS-230). The results are relayed in FIGS. 4 and 5 and Table 2.

[2] = Crystal size distribution of paracetamol crystals from CXF by Jorin Visual Particle Size Analyser (ViPA)
Method: A solution of paracetamol in ethanol (0.3 g/ml) was prepared, alongside an aqueous phase consisting of 0.5% wt. PEG […] in DI water. The CXF was configured with a membrane with 10 μm pores, spaced 200 μm apart in a square grid. A 9.5 mm insert was used. The materials were pumped using gear pumps. The aqueous continuous phase was pumped through the annulus at the center of the membrane. The organic disperse phase was pumped through the top port of the device calibrated at a rate of […], through the membrane and into the flow of continuous phase at 200 ml/min. The solution was collected in a beaker and stirred with an overhead stirrer at 500 rpm for 10-15 minutes. The experiment was repeated 3 times. The resultant crystal suspension was examined via microscopy (see FIG. 1), and Jorin Visual Particle Size Analyser (ViPA) for crystal size and uniformity, (FIG. 2 and Table 1).

[3] = Effect of aqueous phase surfactant on carbamazepine crystals produced via LDC (Jorin ViPA); details: for D10 / D50 / D90 / Volume Mean: LDC
Method: 0.4 g of Carbamazepine was dissolved in 10 ml methanol in a beaker at 45° C. to make up the organic phase. In one instance, 0.5% Pluronic PEG P123 (Mn˜5,800) in DI water was used as the aqueous phase. In another instance, 0.5% HPMC (Mn˜10,000) in DI water was used as the aqueous phase.
The LDC was configured with a membrane with 10 μm pores, spaced 200 μm apart in a ring formation. The stirrer speed was set at 14V (1750 rpm), and the organic phase injection rate set at 10 ml/min. The line was primed with organic phase and the aqueous was poured into the stirred cell. The organic phase addition was started and ended when 3 ml of DP was injected.
The solution was left to stir until precipitation was visible. The crystals were analyzed via microscopy and Jorin ViPA. The results are relayed in FIG. 18 and Table 7.

[4] = Effect of membrane pore diameter on size distribution of telmisartan particles (CXF, laser diffraction); details: for D10 / D50 / D90 / Volume Mean: CXF, DP 58 mL/min
Method: A solution of telmisartan in DMSO (0.06 g/ml) was prepared as the organic phase. The aqueous phase was composed of distilled water. The CXF was configured with membranes of different pore sizes that included 5, 10, 20 and 40 μm pores, spaced 200 μm apart in a square grid. A 9.5 mm insert was used. The materials were pumped using gear pumps. The aqueous continuous phase was pumped through the annulus at the center of the membrane at a rate of 464 ml/min. The organic disperse phase was pumped through the top port of the device at a rate of 58 mL/min, through the membrane pores and into the flow of continuous phase. The solution was collected in a beaker and stirred with an overhead stirrer at 500 rpm for 5-10 minutes.

[5] = Particle size distribution of amorphous telmisartan produced via LDC and CXF (laser diffraction); details: three runs; for D10 / D50 / D90 / Volume Mean D[4,3]: 10 μm pores, ± standard deviation; for StDev: of the size distribution
Method: Reproducibility of the Production of Amorphous Telmisartan and Translation from Stirred Cell LDC to Continuous Crossflow CXF Devices A solution of telmisartan in DMSO (0.06 g/ml) was prepared for use as the organic phase. An aqueous phase of 50 ml of DI water was prepared. The LDC was configured with a membrane with 10 μm pores, spaced 200 μm apart in a square grid, in a ring sat underneath a stirrer paddle. […] The stirrer was set to […] (1750 rpm). […] The LDC runs were repeated three times. Additionally, a solution of telmisartan in DMSO (0.06 g/ml) was prepared as an organic phase. An aqueous phase was composed of distilled water. A CXF was configured with a membrane with 10 μm pores, spaced 200 μm apart in a square grid. A 9.5 mm insert was used. The materials were pumped using gear pumps. The aqueous continuous phase was pumped through the annulus at the center of the membrane at a rate of 464 ml/min. The organic disperse phase was pumped through the top port of the device at a rate of 58 mL/min, through the membrane pores and into the flow of continuous phase. This preserved the 8:1 CP:DP ratio used in the LDC experiments and generated a similar shear profile. The solution was collected in a beaker and stirred with an overhead stirrer at 500 rpm for 5-10 minutes. The CXF runs were repeated three times. The particle size distributions of material produced on the LDC are shown in Table 6, with errors given as the standard deviations, alongside those for the CXF runs.

[6] = Effect of disperse phase flow rate on size distribution of telmisartan particles (CXF, laser diffraction); details: for D10 / D50 / D90 / Volume Mean: CXF, 10 μm pores
Method: A solution of telmisartan in DMSO (0.06 g/ml) was prepared as the organic phase. The aqueous phase was composed of distilled water. The CXF was configured with a membrane with 10 μm pores, spaced 200 μm apart in a square grid. A 9.5 mm insert was used. The materials were pumped using gear pumps. The aqueous continuous phase was pumped through the annulus at the center of the membrane at […]. The organic disperse phase was pumped through the top port of the device at rates of […], through the membrane and into the flow of continuous phase that was calibrated. The solution was collected in a beaker and stirred with an overhead stirrer at 500 rpm for 5-10 minutes.

[7] = Crystal size distribution of prednisolone crystals from CXF by Jorin ViPA; details: 10 μm pores
Method: 8 g of Prednisolone was dissolved in 200 ml of ethanol in a beaker at 55° C. to make up the organic phase. 0.5% PVA (Mowiol 23-88) in DI water was used as the aqueous phase.
The CXF was configured with a membrane with 10 μm pores, spaced 200 μm apart in a square grid. A 9.5 mm insert was used. The materials were pumped using gear pumps, calibrated so the aqueous continuous phase flow was […] and the organic disperse phase flow was 28 mL/min.
The aqueous continuous phase was pumped through the annulus at the center of the membrane. The organic disperse phase, held at 55° C., was pumped through the top port of the device, through the membrane pores and into the flow of continuous phase.
The resultant solution was collected in a 500 ml beaker and stirred with an overhead stirrer at 500 rpm for 10-15 minutes. The crystals were analyzed via microscopy and Jorin ViPA. The results are relayed in FIGS. 6 and 7 and Table 3.

[8] = Crystal size distribution of metformin crystals produced via LDC (Jorin ViPA)
Method: 0.4 g of Metformin was dissolved in 10 ml methanol in a beaker to make up the organic phase. 0.5% Tween 20 in […] was used as the aqueous phase.
The LDC was configured with a membrane with 10 μm pores, spaced 200 μm apart in a ring-shape. The stirrer speed was set at 14V (1750 rpm), and the injection rate set at 10 ml/min. The line was primed with organic phase and the aqueous phase was poured into the dispersion cell. Addition of the organic phase was started and ended when 3 ml of DP was injected.
The solution was left to stir until precipitation was visible. The crystals were analyzed via microscopy and Jorin ViPA. The results are relayed in FIG. 23 and Table 9.

[9] = volume distribution, ethanol solution into 0.5% HPMC water
[10] = Average ± Standard Deviation of 3 runs
[11] = CXF, 10 μm pores, Average ± Standard Deviation of 3 runs
[12] = volume distribution, CXF, 10 μm pores, ethanol solution into 0.5% PEG P123 water, single runs 1-3
[13] = aqueous phase 0.5% HPMC (form III)
[14] = aqueous phase 0.5% P123 (form II)
[15] = 10 μm pore membrane (average of three)
[16] = disperse phase 58 mL/min (average of three)
[17] = volume distribution, ethanol solution 55° C. into 0.5% PVA water
[18] = 10 μm pores, methanol solution into 0.5% Tween 20 in acetonitrile

CN1C(C(=O)Nc2ccccn2)=C(O)c2ccccc2S1(=O)=O [Piroxicam] gave a Span [1] of 1.78, a Mean ([1]; volume distribution) of 6.978 μm and a D10 [1, 9] of 1.240 μm. For the same compound, the D50 [1, 9] was 6.562 μm and the D90 [1, 9] was 12.96 μm.
For CC(=O)Nc1ccc(O)cc1 [Paracetamol, paracetamol], the CV % [2, 10] was 39.07 ± 1.660%, the Span [2, 10] was 1.100 ± 0.066 and the “Volume Mean D[4,3]” value ([2]; CXF, 10 μm pores, ethanol solution into 0.5% PEG P123 water, single runs 1-3) was 45.37 μm and 44.28 μm and 41.17 μm. It also gave a D10 [2, 11] of 23.81 ± 0.894 μm, a D50 [2, 11] of 40.42 ± 0.573 μm and a D90 [2, 11] of 68.31 ± 3.604 μm. For the same compound, the “Volume Mean D[4,3]” value [2, 11] was 43.61 ± 1.258 μm, the Span ([2]; CXF, 10 μm pores, single runs 1-3) was 1.232 and 1.044 and 1.024 and the StDev ([2]; of the size distribution, Average ± Standard Deviation of 3 runs) was 17.05 ± 1.021 μm. For the same compound, the D10 [2, 12] was 24.12 μm and 25.18 μm and 22.13 μm, the D50 [2, 12] was 41.15 μm and 40.82 μm and 39.29 μm and the D90 [2, 12] was 74.81 μm and 67.77 μm and 62.36 μm.
Compound NC(=O)N1c2ccccc2C=Cc2ccccc21 [Carbamazepine] has a Span ([3]; 0.5% HPMC) of 1.10, a Span ([3]; 0.5% P123) of 0.81 and a D10 [3, 13] of 28.90 μm. The D50 [3, 13] was 44.92 μm, the D90 [3, 13] was 78.16 μm and the Volume Mean [3, 13] was 48.84 μm. The D10 [3, 14] was 29.92 μm, the D50 [3, 14] was 42.37 μm and the D90 [3, 14] was 64.09 μm. For the same compound, the Volume Mean [3, 14] was 45.79 μm.
For CCCc1nc2c(C)cc(-c3nc4ccccc4n3C)cc2n1Cc1ccc(-c2ccccc2C(=O)O)cc1 [Telmisartan, telmisartan], the C.V ([4]; 5 μm pore membrane) was 53.31%, the C.V [4, 15] was 50.06% and the C.V ([4]; 20 μm pore membrane) was 57.77%. For the same compound, the C.V ([4]; 40 μm pore membrane) was 56.41%, the D10 ([4]; 5 μm pore membrane) was 6.506 μm and the D50 ([4]; 5 μm pore membrane) was 13.01 μm. The D90 ([4]; 5 μm pore membrane) was 22.83 μm, the “Volume Mean” value ([4]; 5 μm pore membrane) was 14.31 μm and the D10 [4, 15] was 7.359 μm. For the same compound, the D50 [4, 15] was 15.66 μm, the D90 [4, 15] was 28.00 μm and the “Volume Mean” value [4, 15] was 17.11 μm. For the same compound, the D10 ([4]; 20 μm pore membrane) was 6.555 μm, the D50 ([4]; 20 μm pore membrane) was 18.72 μm and the D90 ([4]; 20 μm pore membrane) was 37.68 μm. The “Volume Mean” value ([4]; 20 μm pore membrane) was 20.60 μm, the D10 ([4]; 40 μm pore membrane) was 8.451 μm and the D50 ([4]; 40 μm pore membrane) was 23.16 μm. The D90 ([4]; 40 μm pore membrane) was 45.99 μm, the “Volume Mean” value ([4]; 40 μm pore membrane) was 25.42 μm and the D10 ([5]; CXF) was 7.359 ± 1.096 μm. The D50 ([5]; CXF) was 15.66 ± 1.558 μm, the D90 ([5]; CXF) was 28.0 ± 2.091 μm and the “Volume Mean D[4,3]” value ([5]; CXF) was 17.11 ± 1.538 μm. It also gave a CV ([5]; CXF) of 50.57 ± 3.09%, a Span ([5]; CXF) of 1.389 ± 0.070 and a D10 ([5]; LDC) of 6.952 ± 0.357 μm. For the same compound, the D50 ([5]; LDC) was 14.32 ± 0.693 μm, the D90 ([5]; LDC) was 26.43 ± 1.268 μm and the “Volume Mean D[4,3]” value ([5]; LDC) was 15.79 ± 0.755 μm. It also gave a CV ([5]; LDC) of 51.07 ± 0.937%, a Span ([5]; LDC) of 1.360 ± 0.028 and a StDev ([5]; CXF) of 8.565 ± 0.275 μm. It also gave a StDev ([5]; LDC) of 8.066 ± 0.430 μm, a D10 ([6]; disperse phase 15 mL/min) of 4.653 μm and a D50 ([6]; disperse phase 15 mL/min) of 10.11 μm. For the same compound, the D90 ([6]; disperse phase 15 mL/min) was 15.76 μm, the “Volume Mean” value ([6]; disperse phase 15 mL/min) was 10.17 μm and the D10 ([6]; disperse phase 29 mL/min) was 4.981 μm. The D50 ([6]; disperse phase 29 mL/min) was 10.09 μm, the D90 ([6]; disperse phase 29 mL/min) was 18.9 μm and the “Volume Mean” value ([6]; disperse phase 29 mL/min) was 11.79 μm. It also gave a D10 [6, 16] of 7.359 μm, a D50 [6, 16] of 15.66 μm and a D90 [6, 16] of 28.00 μm. The “Volume Mean” value [6, 16] was 17.11 μm, the Span ([6]; disperse phase 15 mL/min) was 1.099 and the Span ([6]; disperse phase 29 mL/min) was 1.379. It also gave a Span [6, 16] of 1.318.
For C[C@]12C=CC(=O)C=C1CC[C@@H]1[C@@H]2[C@@H](O)C[C@@]2(C)[C@H]1CC[C@]2(O)C(=O)CO [Prednisolone], the Span [7] was 0.72, the “Volume Mean” value [7] was 45.73 μm and the D10 [7, 17] was 29.47 μm. The D50 [7, 17] was 43.76 μm and the D90 [7, 17] was 60.78 μm.
In the case of CN(C)C(=N)N=C(N)N [Metformin], the Span [8] is reported as 1.09, the “Size Mean” value ([8]; 10 μm pores) is reported as 12.430 μm and the “Volume Mean” value ([8]; 10 μm pores) is reported as 53.10 μm. It also gave a D10 [8, 18] of 25.63 μm, a D50 [8, 18] of 50.80 μm and a D90 [8, 18] of 81.03 μm.
